What all share (assay): NCI anticancer screen, dose series, 48 h
Assay [1] relates to ACHN renal.
Assay [2] has as its system EKVX NSCLC.
Assay [3] deals with HCC-2998 colon.
In assay [4] the test system is HL-60(TB) leukemia.
The subject of assay [5] is MALME-3M melanoma.
The subject of assay [6] is MCF7 breast.
Assay [7] deals with NCI-H460 lung.
In assay [8] the test system is OVCAR-5 ovarian.
Assay [9] has as its system T-47D breast.
Assay [10] concerns UO-31 renal.

Each structure is given as a SMILES string.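 All cell lines were grown in 96-well plates and treated with compound for 48 hours. Abbreviation: GI50, concentration required for 50% inhibition of growth. The concentration for full growth arrest is given as TGI.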

`Cc1ccc(NC(=O)Cc2ccc(/C=C/C(=O)c3ncc[nH]3)cc2)cc1`: the GI50 was 6.51 µM in assay [1]; 13.5 µM in assay [2]; 6.73 µM in [3]; 5.88 µM in assay [4]; > 25 µM in [5]; 1.15 µM in [6]. The GI50 in [7] is 6.32 µM; in assay [8], 6.84 µM; in assay [9], 6.47 µM; in assay [10], 3.01 µM. Further, the TGI was 21.4 µM in assay [1]; > 25 µM in assay [2]; > 25 µM in assay [3]; > 25 µM in [4]; > 25 µM in assay [5]; > 25 µM in assay [6]. Further, the TGI was > 25 µM in assay [7], > 25 µM in [8], > 25 µM in [9] and 14.2 µM in assay [10].
As for `COc1ccc(-n2cc(-c3cc(OC)c(OC)c(OC)c3)nc2SCc2ccccc2)cc1`, the GI50 in [1] was 78.8 µM; in assay [2], 11.6 µM; in assay [3], 45.5 µM; in assay [4] it was 10 µM; in [5], > 100 µM; in [6], 15.4 µM. Besides, the GI50 in assay [7] was 52.6 µM; in assay [8], > 100 µM; in [9], 7.89 µM; in assay [10] it was 28 µM. Moreover, the TGI in assay [1], in assay [2], in assay [3], in assay [4], in assay [5] and in assay [6] was > 100 µM in each case. The TGI in [7], in assay [8], in assay [9] and in assay [10] was > 100 µM in each case.
Consider `O=C(Nc1ccccc1)c1nn(-c2cc(S(=O)(=O)O)c([N+](=O)[O-])cc2Cl)[n+](-c2cc(S(=O)(=O)[O-])c([N+](=O)[O-])cc2Cl)n1`, for which the TGI in [1], in assay [2], in assay [3], in [4], in [5] and in assay [6] was > 100 µM each time. Further, the TGI in [7], in [8], in assay [9] and in assay [10] was > 100 µM each time.
For `N=C(N)c1ccc(OCCOCCOc2ccc(C(=N)N)cc2)cc1`, the GI50 is > 100 µM in [1]; > 100 µM in assay [2]; > 100 µM in assay [3]; > 100 µM in assay [4]; 39.5 µM in assay [5]; 89.1 µM in assay [6]. Moreover, the GI50 in [7] is 44.2 µM; in assay [8] it was > 100 µM; in assay [9], 82.5 µM; in assay [10], 71.5 µM. Besides, the TGI in assay [1], in [2], in [3], in assay [4], in assay [5] and in [6] was > 100 µM in each case. In addition, the TGI in [7], in assay [8], in assay [9] and in assay [10] was > 100 µM each time.
Turning to `O=C1C2C(C(=O)[N]1[Hg][c]1cccs1)C1(Cl)C(Cl)=C(Cl)C2(Cl)C1(Cl)Cl` (stereo not given), the GI50 in [1] was 1.61 µM; in assay [2], 1.83 µM; in assay [3], 1.97 µM; in [4] it was 1.29 µM; in [5], 1.22 µM; in assay [6], 0.386 µM. The GI50 is 3.04 µM in assay [7], 1.85 µM in [8], 0.57 µM in assay [9] and 1.74 µM in [10]. The TGI in [1] worked out at 3.04 µM; in assay [2] it was 4.2 µM; in assay [3], 3.59 µM; in [4], 4.63 µM; in assay [5], 2.79 µM; in assay [6], 1.94 µM. The TGI in assay [7] turned out to be 10.1 µM; in [8], 3.61 µM; in assay [9], 2.94 µM; in assay [10] it was 3.21 µM.
`O=c1c2c3c(sc2n2c(-c4cc(-c5ccccc5)no4)nnc2n1Cc1ccccc1)CCCC3`: the GI50 is 9.32 µM in assay [1]; 8.63 µM in [2]; 20.7 µM in assay [3]; 4.65 µM in assay [4]; 32.1 µM in [5]; 16.3 µM in assay [6]. For the same compound, the GI50 in [7] was 12.6 µM; in assay [8], 91.2 µM; in assay [9], 3.55 µM; in assay [10], 27.1 µM. Further, the TGI was > 100 µM in assay [1]; > 67.6 µM in assay [2]; > 76.6 µM in [3]; 29.9 µM in [4]; 97.3 µM in [5]; > 76.3 µM in assay [6]. Further, the TGI in assay [7] is 36.8 µM; in [8] it was > 100 µM; in assay [9] it was 22.1 µM; in assay [10], > 100 µM.
For `O=c1ccc(N=Nc2ccc([N+](=O)[O-])cc2)ccc1O`, the GI50 is 7.07 µM in assay [1]; 4.29 µM in assay [2]; 6.08 µM in assay [3]; 3.47 µM in assay [4]; 14.8 µM in assay [5]; 4 µM in [6]. Further, the GI50 in [7] is 3.48 µM; in [8], 30.1 µM; in assay [9], 4.31 µM; in assay [10], 5.35 µM. Besides, the TGI is > 100 µM in assay [1]; > 100 µM in assay [2]; > 100 µM in [3]; 38.8 µM in [4]; > 100 µM in assay [5]; > 100 µM in assay [6]. Besides, the TGI in assay [7], in [8], in [9] and in assay [10] was > 100 µM throughout.
For the compound `CCCCOc1ccc(NC(=O)n2nc(N)c3ccccc32)cc1`, the GI50 is 22.7 µM in assay [1]; 17.4 µM in assay [2]; 17 µM in assay [3]; 0.813 µM in assay [4]; 18.9 µM in assay [5]; 5.62 µM in [6]. Besides, the GI50 in assay [7] is 13 µM; in assay [8], 21.9 µM; in assay [9], 17 µM; in [10], 13.4 µM. Moreover, the TGI is > 89.4 µM in [1]; 85.1 µM in assay [2]; 37 µM in assay [3]; 21 µM in assay [4]; 48.4 µM in assay [5]; 32.3 µM in assay [6]. In addition, the TGI was 31.2 µM in [7], 68.4 µM in assay [8], > 88.2 µM in [9] and > 100 µM in [10].

The values are drawn from PubChem BioAssay (NCI).
